Our source for the LC50 values is patent publication US20240150356A1, “Pyrimidine amide compounds and use thereof” (ALPHALA CO., LTD., priority 2019, published 2024).

The test system of this assay is Hep3B cells (hepatocellular carcinoma cell line). Briefly: In vitro MTS cell viability assay (NCI-60 methodology), Hep3B. The settings on record: Homo sapiens, 48 h. The assay is classed as cell-based. The procedure:
The cell viability measurement is based on the NCI-60 screening methodology (Nat. Rev. Cancer 6, 813-823, 2006). Briefly, cells are inoculated into 96-well plates at the optimal plating density. After 24 h, one of the two plates for Hep3B cell line is processed to determine a time zero cell viability (Tz) by MTS assay (Promega). Compounds are added over a 2-fold serial dilution to provide a total five drug concentrations plus DMSO control. Plates are incubated for a further 2 days, then measured cell viability by MTS assay [control growth (C) and test growth in the presence of drug at the five concentration levels (Ti)]. The LC50 is calculated from [(Ti−Tz)/Tz]×100=−50, which is the drug concentration resulting in a 50% reduction at the end of the drug treatment as compared to that at the beginning.
The compounds prepared in Tables 1-10 were tested in three in vitro assays, and the results are shown in Tables 1-10 for Hep3B and Table 11 for SW480 and NCI-H460 shown below. Herein, Hep3B refers to hepatocellular carcinoma cell line, SW480 refers to colon adenocarcinoma cell line, and NCI-H460 refers to human lung cancer cell line.
Shown in following Tables 1 to 10 are the structures and in vitro activities of exemplary compounds of formula (I).
In general terms: Tetrazolium assays rely on reduction of a dye to a coloured formazan, in cell work by metabolically active cells.

Setting [1] is: Table 9, MTS, 2 days drug incubation, 50% reduction vs time zero, read-out: Hep3B LC50.
[2] abbreviates: Table 6, MTS, 2 days drug incubation, 50% reduction vs time zero, read-out: Hep3B LC50.
Where [3] appears, read: Table 10, MTS, 2 days drug incubation, 50% reduction vs time zero, read-out: Hep3B LC50.
[4] abbreviates: Table 5, MTS, 2 days drug incubation, 50% reduction vs time zero, read-out: Hep3B LC50.
The mark [5] stands for this setting: Table 4, MTS, 2 days drug incubation, 50% reduction vs time zero, read-out: Hep3B LC50.
[6] abbreviates: Table 7, MTS, 2 days drug incubation, 50% reduction vs time zero, read-out: Hep3B LC50.
Where [7] appears, read: Table 1, MTS, 2 days drug incubation, 50% reduction vs time zero, read-out: Hep3B LC50.
[8] abbreviates: Table 8, MTS, 2 days drug incubation, 50% reduction vs time zero, read-out: Hep3B LC50.

Where two headings read alike, the source gives them in different places.

For the molecule `O=C(Nc1nc(-c2ccc(Cl)cc2)nc2c1cnn2C1CCN(C(=O)OCCCC(F)(F)F)CC1)c1ccc([N+](=O)[O-])s1` [Compound 9-9], the LC50 under setting [1] was found to be 1.07 µM.
With `O=C(Nc1nc(-c2ccc(Cl)cc2)nc2c1cnn2-c1cccc(Cl)c1)c1ccc([N+](=O)[O-])s1` [Compound 6-38, N-(1-(3-chlorophenyl)-6-(4-chlorophenyl)-1H-pyrazolo[3,4-d]pyrimidin-4-yl)-5-nitrothiophene-2-carboxamide], the LC50 under setting [2] turned out to be 0.38 µM.
Turning to `CCCC(=O)N1CCC(n2ncc3c(NC(=O)c4ccc([N+](=O)[O-])s4)nc(-c4ccc(F)nc4)nc32)CC1` [Compound 9-7, N-(1-(1-butyrylpiperidin-4-yl)-6-(6-fluoropyridin-3-yl)-1H-pyrazolo[3,4-d]pyrimidin-4-yl)-5-nitrothiophene-2-carboxamide], the median lethal concentration (LC50) under setting [1] is greater than 5 µM.
Consider `COCCOc1ccc(-c2nc(NC(=O)c3ccc([N+](=O)[O-])s3)c3cnn(-c4ccc(Cl)cc4)c3n2)cn1` [Compound 6-51, N-(1-(4-chlorophenyl)-6-(6-(2-methoxyethoxy)pyridin-3-yl)-1H-pyrazolo[3,4-d]pyrimidin-4-yl)-5-nitrothiophene-2-carboxamide], for which, under setting [2], the LC50 stood at 0.05 µM.
Consider `COc1ccc(-n2ncc3c(NC(=O)c4ccc([N+](=O)[O-])s4)nc(NC4CCCCC4)nc32)cc1` [Compound 6-15, N-(6-(cyclohexylamino)-1-(4-methoxyphenyl)-1H-pyrazolo[3,4-d]pyrimidin-4-yl)-5-nitrothiophene-2-carboxamide], for which the LC50 under setting [2] is greater than 1.25 µM.
As for `CC(=O)c1ccc(-c2nc(NC(=O)c3ccc([N+](=O)[O-])s3)c3cnn(C4CCCCC4)c3n2)cc1` [Compound 10-28, N-(6-(4-acetylphenyl)-1-cyclohexyl-1H-pyrazolo[3,4-d]pyrimidin-4-yl)-5-nitrothiophene-2-carboxamide], under setting [3], the LC50 turned out to be 1.93 µM.
In the case of `O=C(Nc1nc(OCCN2CCOCC2)nc2c1cnn2-c1ccccc1)c1ccc([N+](=O)[O-])s1` [Compound 5-12, N-(6-(2-morpholinoethoxy)-1-phenyl-1H-pyrazolo[3,4-d]pyrimidin-4-yl)-5-nitrothiophene-2-carboxamide], the LC50 under setting [4] is greater than 3 µM.
As to `O=C(Nc1nc(Oc2ccc(F)cc2)nc2c1cnn2-c1ccccc1)c1ccc([N+](=O)[O-])s1` [Compound 5-14, N-(6-(4-fluorophenoxy)-1-phenyl-1H-pyrazolo[3,4-d]pyrimidin-4-yl)-5-nitrothiophene-2-carboxamide], the 50% lethal concentration (LC50) under setting [4] was greater than 5 µM.
Regarding `O=C(Nc1nc(-c2ccc(F)cc2)nc2c(-c3ccccc3)csc12)c1ccc([N+](=O)[O-])s1` [Compound 4-15, N-(2-(4-fluorophenyl)-7-phenylthieno[3,2-d]pyrimidin-4-yl)-5-nitrothiophene-2-carboxamide], the median lethal concentration (LC50) under setting [5] came to 0.62 µM.
Regarding `O=C(Nc1nc(-c2ccnc(F)c2)nc2c1cnn2C1CCCCC1)c1ccc([N+](=O)[O-])s1` [Compound 10-15, N-(1-cyclohexyl-6-(2-fluoropyridin-4-yl)-1H-pyrazolo[3,4-d]pyrimidin-4-yl)-5-nitrothiophene-2-carboxamide], the LC50 under setting [3] came to 1.17 µM.
Consider `COc1ccc(-n2ncc3c(NC(=O)c4ccc([N+](=O)[O-])s4)nc(-c4ccc5c(c4)OCO5)nc32)cc1` [Compound 6-24, N-(6-(benzo[d][1,3]dioxol-5-yl)-1-(4-methoxyphenyl)-1H-pyrazolo[3,4-d]pyrimidin-4-yl)-5-nitrothiophene-2-carboxamide], for which the LC50 under setting [2] stood at 0.19 µM.
In the case of `O=C(Nc1nc(N2CCC[C@H]2CO)nc2c1cnn2-c1ccc(Cl)c(Cl)c1)c1ccc([N+](=O)[O-])s1` [Compound 7-11, (S)—N-(1-(3,4-dichlorophenyl)-6-(2-(hydroxymethyl)pyrrolidin-1-yl)-1H-pyrazolo[3,4-d]pyrimidin-4-yl)-5-nitrothiophene-2-carboxamide], under setting [6], the LC50 came to 0.51 µM.
For the molecule `O=C(Nc1nc(-c2ccc(F)cc2)nc2c1cnn2-c1ccccc1)c1ccc([N+](=O)[O-])s1` [Compound 5-27], under setting [4], the LC50 was found to be 0.27 µM.
For `O=C(Nc1nc(-c2ccc(C(F)(F)F)cc2)nc2c1cnn2-c1ccc(C(F)(F)F)cn1)c1ccc([N+](=O)[O-])s1` [Compound 7-4, 5-nitro-N-(6-(4-(trifluoromethyl)phenyl)-1-(5-(trifluoromethyl)pyridin-2-yl)-1H-pyrazolo[3,4-d]pyrimidin-4-yl)thiophene-2-carboxamide], the LC50 under setting [6] was 0.22 µM.
For the molecule `O=C(Nc1nc(-c2ccc(OCCO)nc2)nc2c1cnn2-c1ccc(F)cc1)c1ccc([N+](=O)[O-])s1` [Compound 6-134, N-(1-(4-fluorophenyl)-6-(6-(2-hydroxyethoxy)pyridin-3-yl)-1H-pyrazolo[3,4,d]pyrimidin-4-yl)-5-nitrothiophene-2-carboxamide], the LC50 under setting [2] was found to be 0.22 µM.
For `Cn1ncc2c(NC(=O)c3ccc([N+](=O)[O-])s3)nc(C#Cc3ccc(OC(F)(F)F)cc3)nc21` [Compound 1-14, N-(1-methyl-6-((4-(trifluoromethoxy)phenyl)ethynyl)-1H-pyrazolo[3,4,d]pyrimidin-4-yl)-5-nitrothiophene-2-carboxamide], the LC50 under setting [7] turned out to be 1.67 µM.
For the molecule `O=C(Nc1nc(-c2ccc(F)nc2)nc2c1cnn2C1CCCC1)c1ccc([N+](=O)[O-])s1` [Compound 8-8, N-(1-cyclopentyl-6-(6-fluoropyridin-3-yl)-1H-pyrazolo[3,4-d]pyrimidin-4-yl)-5-nitrothiophene-2-carboxamide], the LC50 under setting [8] was found to be 1.17 µM.
Consider `Cc1nn(C)c2c(NC(=O)c3ccc([N+](=O)[O-])s3)nc(-c3ccc(OC(F)(F)F)cc3)nc12` [Compound 3-3, N-(1,3-dimethyl-5-(4-(trifluoromethoxy)phenyl)-1H-pyrazolo[4,3-d]pyrimidin-7-yl)-5-nitrothiophene-2-carboxamide], for which, for the setting “Table 3, MTS, 2 days drug incubation, 50% reduction vs time zero, read-out: Hep3B LC50”, the LC50 is 1.92 µM.
Take `O=C(Nc1nc(-c2ccc(Cl)nc2)nc2c1cnn2Cc1ccccc1)c1ccc([N+](=O)[O-])s1` [Compound 7-15, N-(1-benzyl-6-(6-chloropyridin-3-yl)-1H-pyrazolo[3,4-d]pyrimidin-4-yl)-5-nitrothiophene-2-carboxamide]: the LC50 under setting [6] is 1.2 µM.
Consider `O=C(Nc1nc(-c2ccc(F)cc2)nc2c1cnn2C1CCCCCC1)c1ccc([N+](=O)[O-])s1` [Compound 8-10, N-(1-cycloheptyl-6-(4-fluorophenyl)-1H-pyrazolo[3,4-d]pyrimidin-4-yl)-5-nitrothiophene-2-carboxamide], for which the LC50 under setting [8] turned out to be 0.83 µM.
For the molecule `Cn1ncc2c(NC(=O)c3ccc([N+](=O)[O-])s3)nc(-c3ccc(C(C)(C)C)cc3)nc21` [Compound 1-1, N-(6-(4-(tert-butyl)phenyl)-1-methyl-1H-pyrazolo[3,4-d]pyrimidin-4-yl)-5-nitrothiophene-2-carboxamide], the LC50 under setting [7] is 1.8 µM.
Turning to `CC(C)(C)c1ccc(-n2ncc3c(NC(=O)c4ccc([N+](=O)[O-])s4)nc(N4CCN(C(C)(C)C)CC4)nc32)cc1` [Compound 6-73], the LC50 under setting [2] was 0.65 µM.
Take `CC1(C)CCC(n2ncc3c(NC(=O)c4ccc([N+](=O)[O-])s4)nc(-c4ccc5c(c4)OCO5)nc32)CC1` [Compound 10-66, N-(6-(benzo[d][1,3]dioxol-5-yl)-1-(4,4-dimethylcyclohexyl)-1H-pyrazolo[3,4-d]pyrimidin-4-yl)-5-nitrothiophene-2-carboxamide]: under setting [3], the LC50 was found to be 0.61 µM.
Consider `CC(=O)N1CC[C@H](n2ncc3c(NC(=O)c4ccc([N+](=O)[O-])s4)nc(-c4ccc(F)nc4)nc32)C1` [Compound 8-2, (S)—N-(1-(1-acetylpyrrolidin-3-yl)-6-(6-fluoropyridin-3-yl)-1H-pyrazolo[3,4-d]pyrimidin-4-yl)-5-nitrothiophene-2-carboxamide], for which, under setting [8], the LC50 is greater than 3 µM.
For the molecule `CC(C)(C)[Si](C)(C)OC1CN(c2nc(NC(=O)c3ccc([N+](=O)[O-])s3)c3cnn(-c4ccc(OC(F)(F)F)cc4)c3n2)C1` [Compound 6-84], the LC50 (read-out: Hep3B LC50 (uM)) was 1.13 µM.
For the molecule `Cc1ccc(-c2nc(NC(=O)c3ccc([N+](=O)[O-])s3)c3cnn(Cc4ccccc4)c3n2)cn1` [Compound 7-17, N-(1-benzyl-6-(6-methylpyridin-3-yl)-1H-pyrazolo[3,4-d]pyrimidin-4-yl)-5-nitrothiophene-2-carboxamide], the LC50 under setting [6] was greater than 1.25 µM.
With `Cc1csc2c(NC(=O)c3ccc([N+](=O)[O-])s3)nc(-c3ccc(OC(F)(F)F)cc3)nc12` [Compound 4-4, N-(7-methyl-2-(4-(trifluoromethoxy)phenyl)thieno[3,2-d]pyrimidin-4-yl)-5-nitrothiophene-2-carboxamide], under setting [5], the LC50 amounted to 0.89 µM.

Usually LC50 stands for the concentration lethal to half of the exposed cells or organisms.
